Source: ChEMBL document CHEMBL1201862, “PubChem BioAssay data set” (2004)
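Exposure lasted 48 hours, with cells grown in 96-well plates and compounds tested at five concentrations. GI50: concentration for 50% inhibition of growth.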 Active and inactive are the calls of the source. No stated cut-off is given here; in the data, active = GI50 up to about 1.1 µM and inactive = higher.

Assays:
Assay in all cases: growth of human tumour cells (NCI), 48 h
MDA-N = tested on: MDA-N
HT-29 = tested on: HT-29
SNB-19 = tested on: SNB-19
SN12C = tested on: SN12C
NCI-H460 = tested on: NCI-H460
MDA-MB-435 = tested on: MDA-MB-435
OVCAR-8 = tested on: OVCAR-8
M14 = tested on: M14
NCI-H23 = tested on: NCI-H23
SW-620 = tested on: SW-620
OVCAR-3 = tested on: OVCAR-3
SK-OV-3 = tested on: SK-OV-3
MCF7 = tested on: MCF7
IGROV-1 = tested on: IGROV-1
UACC-257 = tested on: UACC-257
DU-145 = tested on: DU-145
A498 = tested on: A498
RPMI-8226 = tested on: RPMI-8226
SR = tested on: SR
KM12 = tested on: KM12
HL-60 = tested on: HL-60
A549 = tested on: A549
U-251 = tested on: U-251
SK-MEL-5 = tested on: SK-MEL-5
Malme-3M = tested on: Malme-3M
MOLT-4 = tested on: MOLT-4
BT-549 = tested on: BT-549
PC-3 = tested on: PC-3
HOP-92 = tested on: HOP-92
NCI/ADR-RES = tested on: NCI/ADR-RES
COLO 205 = tested on: COLO 205
CAKI-1 = tested on: CAKI-1
EKVX = tested on: EKVX
HCT-15 = tested on: HCT-15
HCT-116 = tested on: HCT-116
786-0 = tested on: 786-0
SF-295 = tested on: SF-295
UO-31 = tested on: UO-31
LOX IMVI = tested on: LOX IMVI
OVCAR-5 = tested on: OVCAR-5
MDA-MB-231 = tested on: MDA-MB-231
SK-MEL-2 = tested on: SK-MEL-2
TK-10 = tested on: TK-10
UACC-62 = tested on: UACC-62
HCC 2998 = tested on: HCC 2998
ACHN = tested on: ACHN
K562 = tested on: K562
SF-539 = tested on: SF-539
HOP-62 = tested on: HOP-62
NCI-H522 = tested on: NCI-H522
OVCAR-4 = tested on: OVCAR-4
NCI-H226 = tested on: NCI-H226
RXF 393 = tested on: RXF 393
CCRF-CEM = tested on: CCRF-CEM
SK-MEL-28 = tested on: SK-MEL-28
Hs-578T = tested on: Hs-578T
T47D = tested on: T47D
SNB-75 = tested on: SNB-75
SF-268 = tested on: SF-268

SMILES: N[C@H]1CCN(c2c(F)cc3c(=O)c(C(=O)O)cn4c3c2Oc2cc3c(ccc5ccccc53)cc2-4)C1
- GI50 (MDA-N): 3030 nM (inactive)
- GI50 (HT-29): 3080 nM (inactive)
- GI50 (SNB-19): 5810 nM (inactive)
- GI50 (SN12C): 3230 nM (inactive)
- GI50 (NCI-H460): 1940 nM (inactive)
- GI50 (MDA-MB-435): 3880 nM (inactive)
- GI50 (OVCAR-8): 2960 nM (inactive)
- GI50 (M14): 4680 nM (inactive)
- GI50 (NCI-H23): 4830 nM (inactive)
- GI50 (SW-620): 3270 nM (inactive)
- GI50 (OVCAR-3): 4480 nM (inactive)
- GI50 (SK-OV-3): 5610 nM (inactive)
- GI50 (MCF7): 2630 nM (inactive)
- GI50 (IGROV-1): 2590 nM (inactive)
- GI50 (UACC-257): 4900 nM (inactive)
- GI50 (DU-145): 4050 nM (inactive)
- GI50 (A498): 3560 nM (inactive)
- GI50 (RPMI-8226): 1580 nM (inactive)
- GI50 (SR): 2520 nM (inactive)
- GI50 (KM12): 3490 nM (inactive)
- GI50 (HL-60): 3790 nM (inactive)
- GI50 (A549): 3870 nM (inactive)
- GI50 (U-251): 1390 nM (inactive)
- GI50 (SK-MEL-5): 1870 nM (inactive)
- GI50 (Malme-3M): 4430 nM (inactive)
- GI50 (MOLT-4): 1450 nM (inactive)
- GI50 (BT-549): 6460 nM (inactive)
- GI50 (PC-3): 2170 nM (inactive)
- GI50 (HOP-92): 2590 nM (inactive)
- GI50 (NCI/ADR-RES): 8170 nM (inactive)
- GI50 (COLO 205): 2750 nM (inactive)
- GI50 (CAKI-1): 3600 nM (inactive)
- GI50 (EKVX): 3650 nM (inactive)
- GI50 (HCT-15): 3980 nM
- GI50 (HCT-116): 2870 nM (inactive)
- GI50 (786-0): 2880 nM (inactive)
- GI50 (SF-295): 2980 nM (inactive)
- GI50 (UO-31): 4790 nM (inactive)
- GI50 (LOX IMVI): 3080 nM (inactive)
- GI50 (OVCAR-5): 11000 nM (inactive)
- GI50 (MDA-MB-231): 14 nM (active)
- GI50 (SK-MEL-2): 2960 nM (inactive)
- GI50 (TK-10): 4440 nM (inactive)
- GI50 (UACC-62): 6140 nM (inactive)
- GI50 (HCC 2998): 1990 nM (inactive)
- GI50 (ACHN): 2320 nM (inactive)
- GI50 (K562): 2820 nM (inactive)
- GI50 (SF-539): 1700 nM (inactive)
- GI50 (HOP-62): 4060 nM (inactive)
- GI50 (NCI-H522): 4000 nM (inactive)
- GI50 (OVCAR-4): 5250 nM (inactive)
- GI50 (NCI-H226): 2580 nM (inactive)
- GI50 (RXF 393): 6410 nM (inactive)

SMILES: CN1C(=O)C2(Cc3cn(C45CC67SSC(CO)(C(=O)N6C4Nc4ccccc45)N(C)C7=O)c4ccccc34)SSC1(CO)C(=O)N2C (centres undefined)
- GI50 (MDA-N): 19.8 nM (active)
- GI50 (HT-29): < 10 nM (active)
- GI50 (CCRF-CEM): 1520 nM (inactive)
- GI50 (SNB-19): 271 nM (active)
- GI50 (SN12C): 14.7 nM (active)
- GI50 (NCI-H460): 218 nM (active)
- GI50 (SK-MEL-28): 84 nM (active)
- GI50 (MDA-MB-435): 33.5 nM (active)
- GI50 (OVCAR-8): 20.6 nM (active)
- GI50 (M14): < 10 nM (active)
- GI50 (NCI-H23): < 10 nM (active)
- GI50 (SW-620): 10.8 nM (active)
- GI50 (OVCAR-3): 16.3 nM (active)
- GI50 (Hs-578T): 28.2 nM (active)
- GI50 (T47D): < 10 nM (active)
- GI50 (SK-OV-3): 262 nM (active)
- GI50 (MCF7): < 10 nM (active)
- GI50 (IGROV-1): 16.5 nM (active)
- GI50 (UACC-257): 18.8 nM (active)
- GI50 (DU-145): 26.1 nM (active)
- GI50 (A498): 29.1 nM (active)
- GI50 (RPMI-8226): 13.9 nM (active)
- GI50 (SR): < 10 nM (active)
- GI50 (KM12): 139 nM (active)
- GI50 (HL-60): 13 nM (active)
- GI50 (A549): 172 nM (active)
- GI50 (U-251): 36.9 nM (active)
- GI50 (SK-MEL-5): 100 nM (active)
- GI50 (Malme-3M): < 10 nM (active)
- GI50 (MOLT-4): 40.5 nM (active)
- GI50 (PC-3): 47.8 nM (active)
- GI50 (HOP-92): 53 nM (active)
- GI50 (NCI/ADR-RES): 19.7 nM (active)
- GI50 (COLO 205): < 10 nM (active)
- GI50 (SNB-75): 42.3 nM (active)
- GI50 (CAKI-1): < 10 nM (active)
- GI50 (EKVX): 28.2 nM (active)
- GI50 (HCT-15): < 10 nM
- GI50 (HCT-116): 11.3 nM (active)
- GI50 (786-0): < 10 nM (active)
- GI50 (SF-295): 309 nM (active)
- GI50 (SF-268): 19.1 nM (active)
- GI50 (UO-31): 33.5 nM (active)
- GI50 (LOX IMVI): 11.4 nM (active)
- GI50 (OVCAR-5): 120 nM (active)
- GI50 (MDA-MB-231): 13.3 nM (active)
- GI50 (SK-MEL-2): 100 nM (active)
- GI50 (TK-10): 24.3 nM (active)
- GI50 (UACC-62): 23.9 nM (active)
- GI50 (HCC 2998): 22.9 nM (active)
- GI50 (ACHN): < 10 nM (active)
- GI50 (K562): < 10 nM (active)
- GI50 (SF-539): 11 nM (active)
- GI50 (HOP-62): 63.4 nM (active)
- GI50 (NCI-H522): < 10 nM (active)
- GI50 (OVCAR-4): < 10 nM (active)
